The NIST ThermoML archive (doi:10.1016/j.fluid.2017.09.005)
± gives the expanded uncertainty stated by the source.

Test: xn = mol fraction of the nth substance listed
Details: Liquid; for mass density: Vibrating tube method

CO [methanol] + O
viscosity [mPa·s], Pressure drop in straight capillary
Details | x1 = 0.1 | x1 = 0.2 | x1 = 0.3 | x1 = 0.4 | x1 = 0.6 | x1 = 0.8 | x1 = 1
523.2 K, 20000 kPa | 0.116 ± 0.009 | 0.112 ± 0.009 | 0.108 ± 0.009 | 0.102 ± 0.009 | 0.09 ± 0.008 | 0.079 ± 0.008 | 0.07 ± 0.008
523.2 K, 30000 kPa | 0.118 ± 0.009 | 0.117 ± 0.009 | 0.114 ± 0.009 | 0.11 ± 0.009 | 0.1 ± 0.009 | 0.09 ± 0.008 | 0.08 ± 0.008
523.2 K, 40000 kPa | 0.121 ± 0.009 | 0.121 ± 0.009 | 0.119 ± 0.009 | 0.115 ± 0.009 | 0.107 ± 0.009 | 0.098 ± 0.009 | 0.089 ± 0.008
573.2 K, 20000 kPa | 0.084 ± 0.008 | 0.08 ± 0.008 | 0.074 ± 0.008 | 0.067 ± 0.008 | 0.054 ± 0.008 | 0.045 ± 0.008 | 0.042 ± 0.008
573.2 K, 30000 kPa | 0.089 ± 0.008 | 0.085 ± 0.008 | 0.078 ± 0.008 | 0.078 ± 0.008 | 0.072 ± 0.008 | 0.065 ± 0.008 | 0.063 ± 0.008
573.2 K, 40000 kPa | 0.094 ± 0.009 | 0.091 ± 0.008 | 0.087 ± 0.008 | 0.084 ± 0.008 | 0.075 ± 0.008 | 0.069 ± 0.008 | 0.065 ± 0.008
618.2 K, 20000 kPa | 0.06 ± 0.008 | 0.035 ± 0.008 | 0.026 ± 0.008 | 0.025 ± 0.008 | 0.027 ± 0.008 | 0.027 ± 0.008 | 0.029 ± 0.008
618.2 K, 30000 kPa | 0.071 ± 0.008 | 0.065 ± 0.008 | 0.058 ± 0.008 | 0.052 ± 0.008 | 0.047 ± 0.008 | 0.044 ± 0.008 | 0.043 ± 0.008
618.2 K, 40000 kPa | 0.078 ± 0.008 | 0.073 ± 0.008 | 0.069 ± 0.008 | 0.065 ± 0.008 | 0.059 ± 0.008 | 0.055 ± 0.008 | 0.053 ± 0.008

mass density [kg/m3]
Details | x1 = 0.1 | x1 = 0.2 | x1 = 0.3 | x1 = 0.4 | x1 = 0.6 | x1 = 0.8 | x1 = 1
523.2 K, 20000 kPa | 767.8 ± 3 | 724.7 ± 3.2 | 686.4 ± 3.4 | 652.8 ± 3.6 | 597.1 ± 4 | 552.1 ± 4.2 | 517.5 ± 4.2
523.2 K, 30000 kPa | 781.4 ± 2.9 | 740.7 ± 3 | 705.9 ± 3.1 | 677 ± 3.1 | 628.4 ± 3.2 | 591.4 ± 3.2 | 563.57 ± 3.1
523.2 K, 40000 kPa | 791.9 ± 2.9 | 754.4 ± 2.9 | 722.3 ± 2.9 | 694.7 ± 3 | 650.9 ± 3 | 618.2 ± 3 | 593.3 ± 2.9
573.2 K, 20000 kPa | 674.5 ± 4.2 | 619.8 ± 5.4 | 569.3 ± 5.8 | 522.3 ± 5.6 | 439.6 ± 5.2 | 380.5 ± 4.8 | 345.3 ± 4.5
573.2 K, 30000 kPa | 696.2 ± 3.7 | 650.4 ± 3.8 | 610.2 ± 3.9 | 575.5 ± 4 | 520.4 ± 4.1 | 482.3 ± 4 | 457.63 ± 3.8
573.2 K, 40000 kPa | 714.3 ± 3.6 | 673.1 ± 3.6 | 638 ± 3.6 | 608 ± 3.7 | 562.4 ± 3.7 | 530.6 ± 3.6 | 511 ± 3.6
618.2 K, 20000 kPa | 497.6 ± 6 | 299.3 ± 7.4 | 208.9 ± 8.3 | 198.2 ± 8 | 198.4 ± 6.4 | 203.9 ± 5.3 | 210.5 ± 4.6
618.2 K, 30000 kPa | 586 ± 4.5 | 524.1 ± 5.1 | 473.1 ± 5.3 | 430.4 ± 5.3 | 381.7 ± 4.9 | 360.2 ± 4.7 | 350.4 ± 4.6
618.2 K, 40000 kPa | 624.9 ± 4.1 | 578.5 ± 4.2 | 544.1 ± 4.2 | 512 ± 4.2 | 470.3 ± 4.1 | 446.2 ± 4.1 | 427.7 ± 4.1

O [water] + CCO
viscosity [mPa·s], Capillary tube (Ostwald / Ubbelohde) method, x2 = 0
Details | 523.2 K | 573.2 K | 618.2 K
20000 kPa | 0.11 ± 0.003 | 0.09 ± 0.002 | 0.072 ± 0.002
30000 kPa | 0.113 ± 0.003 | 0.093 ± 0.002 | 0.077 ± 0.002
40000 kPa | 0.115 ± 0.003 | 0.096 ± 0.002 | 0.081 ± 0.002

mass density [kg/m3], x2 = 0
Details | 523.2 K | 573.2 K | 618.2 K
20000 kPa | 816.1 ± 2.8 | 734.8 ± 3.7 | 619.7 ± 4.4
30000 kPa | 825.5 ± 2.8 | 750.7 ± 3.5 | 656.9 ± 4.2
40000 kPa | 834.3 ± 2.7 | 764.3 ± 3.4 | 682.3 ± 4
